Test results: the supplement of paper PMC10307832

Tests used:
Assay in all cases: relative viability (nuclei count vs DMSO), 5 days (fraction); higher = more cells survive
Afatinib + Vorinostat = compound: CN(C)C/C=C/C(=O)Nc1cc2c(Nc3ccc(F)c(Cl)c3)ncnc2cc1O[C@H]1CCOC1 [Afatinib] + O=C(CCCCCCC(=O)Nc1ccccc1)NO [Vorinostat] (partner 1 µM)
In short: (§1)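 A single step with final 0.05% Triton X-100, 1% formaldehyde and 1 ug/ml Hoechst fixed the cells and stained nuclei 5 days after treatment. Lung cancer cell lines in 1536-well plates had been treated by pin tool the day after seeding with one drug alone or a fixed anchor-drug dose plus five library-drug doses (not always all listed) in √10 steps, and nuclei were counted on 4× images. Relative viability is the ratio of nuclei in treated wells to nuclei in vehicle wells, taken as the median of duplicate plates.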

Afatinib + Dasatinib = compound: CN(C)C/C=C/C(=O)Nc1cc2c(Nc3ccc(F)c(Cl)c3)ncnc2cc1O[C@H]1CCOC1 [Afatinib] + Cc1nc(Nc2ncc(C(=O)Nc3c(C)cccc3Cl)s2)cc(N2CCN(CCO)CC2)n1 [Dasatinib] (partner 0.075 µM)
In short: as §1

Afatinib + Pictilisib = compound: CN(C)C/C=C/C(=O)Nc1cc2c(Nc3ccc(F)c(Cl)c3)ncnc2cc1O[C@H]1CCOC1 [Afatinib] + CS(=O)(=O)N1CCN(Cc2cc3nc(-c4cccc5[nH]ncc45)nc(N4CCOCC4)c3s2)CC1 [Pictilisib] (partner 1 µM)
In short: as §1

Afatinib + Crizotinib = compound: CN(C)C/C=C/C(=O)Nc1cc2c(Nc3ccc(F)c(Cl)c3)ncnc2cc1O[C@H]1CCOC1 [Afatinib] + C[C@@H](Oc1cc(-c2cnn(C3CCNCC3)c2)cnc1N)c1c(Cl)ccc(F)c1Cl [Crizotinib] (partner 1 µM)
In short: as §1

## NCI-H2126
Afatinib + Vorinostat; first compound 0.005 µM
  relative viability: 0.732
Afatinib + Vorinostat; first compound 0.01581 µM
  relative viability: 0.683
Afatinib + Vorinostat; first compound 0.05 µM
  relative viability: 0.617
Afatinib + Vorinostat; first compound 0.1581 µM
  relative viability: 0.43
Afatinib + Vorinostat; first compound 0.5 µM
  relative viability: 0.481
Afatinib + Dasatinib; first compound 0.005 µM
  relative viability: 0.573
Afatinib + Dasatinib; first compound 0.01581 µM
  relative viability: 0.532
Afatinib + Dasatinib; first compound 0.05 µM
  relative viability: 0.439
Afatinib + Dasatinib; first compound 0.1581 µM
  relative viability: 0.394
Afatinib + Dasatinib; first compound 0.5 µM
  relative viability: 0.401
Afatinib + Pictilisib; first compound 0.005 µM
  relative viability: 0.487
Afatinib + Pictilisib; first compound 0.01581 µM
  relative viability: 0.447
Afatinib + Pictilisib; first compound 0.05 µM
  relative viability: 0.36
Afatinib + Pictilisib; first compound 0.1581 µM
  relative viability: 0.436
Afatinib + Pictilisib; first compound 0.5 µM
  relative viability: 0.37
Afatinib + Crizotinib; first compound 0.005 µM
  relative viability: 1.09
Afatinib + Crizotinib; first compound 0.01581 µM
  relative viability: 0.989
Afatinib + Crizotinib; first compound 0.05 µM
  relative viability: 1.02
Afatinib + Crizotinib; first compound 0.1581 µM
  relative viability: 0.884
Afatinib + Crizotinib; first compound 0.5 µM
  relative viability: 0.79

## NCI-H2170
Afatinib + Vorinostat; first compound 0.005 µM
  relative viability: 0.618
Afatinib + Vorinostat; first compound 0.01581 µM
  relative viability: 0.697
Afatinib + Vorinostat; first compound 0.05 µM
  relative viability: 0.271
Afatinib + Vorinostat; first compound 0.1581 µM
  relative viability: 0.201
Afatinib + Vorinostat; first compound 0.5 µM
  relative viability: 0.2
Afatinib + Dasatinib; first compound 0.005 µM
  relative viability: 0.352
Afatinib + Dasatinib; first compound 0.01581 µM
  relative viability: 0.281
Afatinib + Dasatinib; first compound 0.05 µM
  relative viability: 0.157
Afatinib + Dasatinib; first compound 0.1581 µM
  relative viability: 0.131
Afatinib + Dasatinib; first compound 0.5 µM
  relative viability: 0.155
Afatinib + Pictilisib; first compound 0.005 µM
  relative viability: 0.285
Afatinib + Pictilisib; first compound 0.01581 µM
  relative viability: 0.228
Afatinib + Pictilisib; first compound 0.05 µM
  relative viability: 0.237
Afatinib + Pictilisib; first compound 0.1581 µM
  relative viability: 0.185
Afatinib + Pictilisib; first compound 0.5 µM
  relative viability: 0.209
Afatinib + Crizotinib; first compound 0.005 µM
  relative viability: 1.07
Afatinib + Crizotinib; first compound 0.01581 µM
  relative viability: 0.822
Afatinib + Crizotinib; first compound 0.05 µM
  relative viability: 0.534
Afatinib + Crizotinib; first compound 0.1581 µM
  relative viability: 0.25
Afatinib + Crizotinib; first compound 0.5 µM
  relative viability: 0.286

## NCI-H2228
Afatinib + Vorinostat; first compound 0.005 µM
  relative viability: 0.928
Afatinib + Vorinostat; first compound 0.01581 µM
  relative viability: 0.444
Afatinib + Vorinostat; first compound 0.05 µM
  relative viability: 0.566
Afatinib + Vorinostat; first compound 0.1581 µM
  relative viability: 0.698
Afatinib + Vorinostat; first compound 0.5 µM
  relative viability: 0.462
Afatinib + Dasatinib; first compound 0.005 µM
  relative viability: 0.619
Afatinib + Dasatinib; first compound 0.01581 µM
  relative viability: 0.56
Afatinib + Dasatinib; first compound 0.05 µM
  relative viability: 0.55
Afatinib + Dasatinib; first compound 0.1581 µM
  relative viability: 0.41
Afatinib + Dasatinib; first compound 0.5 µM
  relative viability: 0.634
Afatinib + Pictilisib; first compound 0.005 µM
  relative viability: 0.343
Afatinib + Pictilisib; first compound 0.01581 µM
  relative viability: 0.45
Afatinib + Pictilisib; first compound 0.05 µM
  relative viability: 0.381
Afatinib + Pictilisib; first compound 0.5 µM
  relative viability: 0.279
Afatinib + Crizotinib; first compound 0.005 µM
  relative viability: 0.455
Afatinib + Crizotinib; first compound 0.01581 µM
  relative viability: 0.46
Afatinib + Crizotinib; first compound 0.05 µM
  relative viability: 0.345
Afatinib + Crizotinib; first compound 0.5 µM
  relative viability: 0.34

## NCI-H2347
Afatinib + Vorinostat; first compound 0.005 µM
  relative viability: 0.628
Afatinib + Vorinostat; first compound 0.01581 µM
  relative viability: 0.73
Afatinib + Vorinostat; first compound 0.05 µM
  relative viability: 0.587
Afatinib + Vorinostat; first compound 0.1581 µM
  relative viability: 0.524
Afatinib + Vorinostat; first compound 0.5 µM
  relative viability: 0.565
Afatinib + Dasatinib; first compound 0.005 µM
  relative viability: 0.34
Afatinib + Dasatinib; first compound 0.01581 µM
  relative viability: 0.318
Afatinib + Dasatinib; first compound 0.05 µM
  relative viability: 0.453
Afatinib + Dasatinib; first compound 0.1581 µM
  relative viability: 0.269
Afatinib + Dasatinib; first compound 0.5 µM
  relative viability: 0.288
Afatinib + Pictilisib; first compound 0.005 µM
  relative viability: 0.737
Afatinib + Pictilisib; first compound 0.01581 µM
  relative viability: 0.665
Afatinib + Pictilisib; first compound 0.05 µM
  relative viability: 0.672
Afatinib + Pictilisib; first compound 0.1581 µM
  relative viability: 0.596
Afatinib + Pictilisib; first compound 0.5 µM
  relative viability: 0.841
Afatinib + Crizotinib; first compound 0.005 µM
  relative viability: 0.828
Afatinib + Crizotinib; first compound 0.01581 µM
  relative viability: 0.937
Afatinib + Crizotinib; first compound 0.05 µM
  relative viability: 0.657
Afatinib + Crizotinib; first compound 0.1581 µM
  relative viability: 0.607
Afatinib + Crizotinib; first compound 0.5 µM
  relative viability: 0.724
